Patent US11793816B2, “Methods for enhancing cytotoxic cancer therapy through inhibition of ATG4B” (Northwestern University, priority 2019, dated 2023)
Read-outs that look alike come from different tables or passages of the source.

What was measured:
[1] = system: GSC83 and GBM43 cells; assay: Annexin V/propidium iodide flow cytometry after NSC, IR, TMZ alone or combined; assay type: cell-based; settings: NSC combined with IR or/and TMZ vs single treatments, 48 hours
[2] = system: GSC JK83 orthotopic xenografts; assay: GSC JK83 orthotopic brain tumor xenograft model (survival, BLI, tissue staining); assay type: in vivo, mice
Source text: FIG. 7. NSC enhance anticancer efficacy of AZD2014 in a patient-derived GSC xenograft model. […] Treatments were started at one week post-implantation. Bioluminescent (BLI) images were taken after the last treatment, and representative images are shown. Scale bar, photons/sec/cm2/steradian. (B) Kaplan-Meier of mice bearing GSC JK83 orthotopic xenografts with indicated treatments. (C) The brains of mice bearing orthotopic xenografts with indicated treatments were collected for immunohistochemical evaluation using indicating antibody. *P<0.05, **p<0.01, […]. Data are representative from three independent experiments with similar results.
Frozen brain tissue sections with GBM xenografts were dried and then fixed in were fixed in 4% paraformaldehyde (PFA) in PBS for 5 minutes. Tissue sections were blocked with AquaBlock (East Coast Bio, North Berwick, Me.) for an hour and then were probed with appropriate primary antibodies 4° C. overnight. Tissue sections were incubated with Alexa 488 or 594 labelled secondary antibodies (1:200) and DAPI-containing mounting solution Vectashield (Vector Laboratories), and representative images were photographed using a Nikon inverted microscope Eclipse Ti-U equipped with a digital camera.
To determine whether the enhancement of AZD2014 therapeutic efficiency by combination with NSC measured in vitro extends to an orthotopic model, GSC JK83 glioma spheres were employed to initiate intracerebral xenografts in mice.

[3] = Pharmacokinetic studies in mice: NSC185058 in plasma, brain and liver by LC-MS/MS; assay type: in vivo; settings: for Cmax / AUC / half-life: plasma; for Cmax: read-out: average maximum plasma concentration (Cmax); for AUC: read-out: Area under the curve (AUC) for the plasma; for half-life: read-out: elimination half-life (converted)
Experimental: FIG. 1. NSC185058 (NSC) effectively distributes to the plasma, the brain, and the liver with minimal toxicity in mice. (A) to (C) Mice were dosed with peanut oil vehicle or ATG4B antagonists NSC185058 at doses of 10 or 50 mg/kg body weight. Plasma, the brain, and the liver tissues were collected at the indicated time points. (A) Total concentrations of the NSC compound in plasma were measured by LC-MS/MS. The PK parameter of NSC in plasma was determined. (B) NSC levels in plasma were determined form 5 min to 24 hr post dosing. The chemical structure of NSC was shown. (C) NSC levels were determined in the plasma, the brain, and the liver tissues at 0.5 and 8 hr post dosing. (D) Hematoxylin and eosin stained section s of indicated organs that were treated with NSC (150 mg/kg body weight) or vehicle on Monday, Wednesday, and Friday for three weeks. Scale bars, 50 μm. n=3 mice/group/time point.
Athymic (Ncr nu/nu) mice were injected intraperitoneal (i.p.) with peanut oil vehicle or ATG4B antagonists NSC185058 (50 mg/kg body weight for high does group and 10 mg/kg body weight for low does group). Mouse blood was withdrawn by terminal cardiac puncture while the animals were anesthetized with isoflurane. Blood samples were collected in tubes containing K2EDTA as the anticoagulant at 5, 15, and 30 minutes; 1, 2, 4, 8, and 24 hours post-dose for treatment groups. Mouse brain and liver tissue were also collected from the study animals at 1, 2, 4, and 8 hours post-dose. Control group animals were sacrificed at 24 hours after vehicle injection. Blood samples were centrifuged within one hour of collection and plasma was frozen at approximately −80° C. until analyzed at for concentration of the drug. Total concentrations of the NSC185058 compound in the plasma, the liver, and the brain were measured by LC-MS/MS at Illinois Institute of Technology Research Institute.
The NSC was administered at the dose of 10 or 50 mg/kg body weight in group of three mice. At the indicated time points spanning a 24 hrs period ([…], 0.5, 1, 2, 4, 8, and 24 hour), the plasma, the brain, and the liver tissues were collected. Plasmid and extracts from the brain and the liver were analyzed by LC-MS/MS using method developed at the Illinois Institute of Technology Research Institute (IITRI). […] Plasma exposure appears to increase beyond the hinge in dose for the dosing range tested. The elimination half-life was 2 and 4 for the 10 and 50 mg/kg dose, respectively. […] To examine whether NSC is tolerated in mouse, we investigated the effect induced by NSC in mouse behavior or by pathologic analysis of vital organs including the brain, the heart, the liver, the lung, the kidney, and the spleen. Mice underwent treatments on Monday, Wednesday, and Friday for three week with either peanut oil (vehicle) or NSC (150 mg/kg body weight) in peanut oil. […] Animal tissues were collected one week after the last dosing and subject for hematoxylin and eosin staining.

[4] = athymic Ncr nu/nu, mouse, IP 10 mg/kg
[5] = athymic Ncr nu/nu, mouse, IP 50 mg/kg

For `S=C(Nc1ccccn1)c1ccccn1` [NSC185058, N-pyridin-2-yl-pyridine-2-carbothioamide], the “apoptotic cells (Annexin V/PI)” value [1] was “more apoptotic cells than single treatments”, the “autophagic flux (LC3B puncta staining) in brain tumor xenografts” value ([2]; NSC (50 mg/kg) alone) was “slight impact on autophagic flux” and the “AZD2014-induced autophagy response in the brain” value ([2]; NSC (50 mg/kg) in the combination protocol) was “strongly attenuated AZD2014-induced autophagy response”. For the same compound, the mouse survival ([2]; NSC (100 mg/kg), AZD2014 (50 mg/kg), alone or combined, vs control) was “modest but significant effects on mouse survival”, the “effect of NSC on inhibition efficiency of AZD2014 on xenograft growth” value ([2]; combination treatment) was “enhanced the inhibition efficiency of AZD2014” and the blood-brain barrier penetration [3] was “excellent blood/brain barrier (BBB) penetration”. For the same compound, the Cmax ([3]; athymic Ncr nu/nu, mouse, IP single dose 10 mg/kg) was 2.6 µM, the Cmax ([3]; athymic Ncr nu/nu, mouse, IP single dose 50 mg/kg) was 33 µM and the Kp ([3]; athymic Ncr nu/nu, mouse, IP, brain vs plasma, read-out: average brain tissue concentration relative to that in the plasma at the same time points) was 0.4 to 1. It also gave a concentration at 0.5 h ([3]; athymic Ncr nu/nu, mouse, brain, 50 mg/kg, 0.5 hrs post IP dose, read-out: Average brain tissue concentration) of 12000 ng/g, a concentration at 8 h ([3]; athymic Ncr nu/nu, mouse, brain, 50 mg/kg, 8 hrs post IP dose, read-out: Average brain tissue concentration) of 4100 ng/g and an AUC [3, 4] of 2140 ng·h/mL. It also gave a half-life [3, 4] of 2 h, an AUC [3, 5] of 57200 ng·h/mL and a half-life [3, 5] of 4 h. For the same compound, the blood-brain barrier penetration ([3]; listed as NSC) was “penetrates the tumor blood-brain barrier at sufficient levels”.
